Assay results reported in article PMC4339887, “Selective Sirt2 inhibition by ligand-induced rearrangement of the active site” (Nature Communications, 2015).
pIC50: −log10 of the molar value. Entries after “also recorded” stand apart in the source; their conditions may differ. One block for each compound: values may come before it.

How the values were obtained:
[1] = tested on: acetylation of the microtubule network in HeLa cells; assay: immunofluorescence microscopy of acetylated microtubule network; assay type: cell-based; conditions: 4 h
Excerpt: Cells were then stained with an anti-acetyl-α-tubulin antibody (Sigma-Aldrich, T6793) and then probed with a secondary Alexa 546 conjugated anti-mouse-antibody (Invitrogen). Nuclei were counterstained with DAPI (4',6-diamidino-2-phenylindole). Coverslips were mounted with FluoroMount (Sigma-Aldrich) and sealed with DPX Mountant (Sigma-Aldrich). Images of the mounted samples were acquired on a Leica DM500 microscope equipped with a Leica DFC 395 FX camera and HBO 100 W lamp[40]. The microscope was run with the Leica Application Suite 4.4.0 software. Chroma UV filter set (No. C40888) and Leica N2.1 filter set (No. 513832) were used for DAPI and Alexa 546 signal acquisition, respectively, with a HCX FL Fluotar 40x/0.75 (dry) objective. Further details about the equipment and the settings that were used to acquire the images are found in the Supplementary Methods section. Unprocessed images are found in Supplementary Fig. 9. […]
Immunocytochemistry equipment and settings. The signal of Alexa 546 and DAPI of the same region were acquired with constant illumination parameters as grayscale 8-bit 600 dpi tiff files (1600u 1200 pixels). Alexa 546 was acquired after 639.1 ms with a gamma factor of 0.65 without multiplying. The gain was set to 1. DAPI-stained images were acquired after about 20 ms with the same parameters as the one for Alexa 546 image acquisition. The temperature in the microscope room was kept at RT. Representative regions of each samples were processed with Adobe Photoshop CS2 to generate images in RGB mode by copying the appropriate original greyscale images to the blue (nuclei, DAPI) and the red (acetylated D-tubulin signal, Alexa 546) channel, respectively. As adjustment, a minimal background subtraction was applied on all images during processing in the same manner. The resolution was changed from 600 dpi (source images) to 450 dpi without resampling (Fig. 7 of the main article). LUT (CLUT) of grayscale images of the acetylated D-tubulin signal and of the DAPI signal are shown in Supplementary Fig. 8. […]

[2] = target: T1, human Sirt1 (Homo sapiens, UniProt Q96EB6); assay: fluorescence-based in vitro sirtuin assay, substrate ZMAL; conditions: at 50 μM
T1 sequence (Q96EB6 133-747): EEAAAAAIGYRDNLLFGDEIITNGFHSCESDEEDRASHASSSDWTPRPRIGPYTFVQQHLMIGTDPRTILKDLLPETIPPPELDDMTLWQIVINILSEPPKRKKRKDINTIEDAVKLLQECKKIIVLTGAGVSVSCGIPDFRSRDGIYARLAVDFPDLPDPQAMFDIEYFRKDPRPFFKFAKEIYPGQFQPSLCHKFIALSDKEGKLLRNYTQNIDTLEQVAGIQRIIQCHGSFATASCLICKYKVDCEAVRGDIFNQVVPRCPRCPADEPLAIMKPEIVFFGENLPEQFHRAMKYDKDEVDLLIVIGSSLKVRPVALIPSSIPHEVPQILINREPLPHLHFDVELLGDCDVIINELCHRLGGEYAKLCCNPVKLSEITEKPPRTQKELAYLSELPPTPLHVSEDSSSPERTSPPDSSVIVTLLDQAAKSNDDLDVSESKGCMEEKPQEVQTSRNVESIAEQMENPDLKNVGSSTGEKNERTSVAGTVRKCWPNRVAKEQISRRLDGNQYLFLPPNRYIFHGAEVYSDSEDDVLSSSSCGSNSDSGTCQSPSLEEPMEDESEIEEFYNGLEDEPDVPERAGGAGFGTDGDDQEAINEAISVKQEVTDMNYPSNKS

[3] = tested on: Sirt3; set-up: method as in earlier work; conditions: selectivity profile, Sirt3 entry; † inhibition substrate-dependent; ref 2-9 (supplementary references); cited from earlier work
[4] = target: Sirt2; set-up: method as in earlier work; conditions: ref 2-9 (supplementary references), cited from earlier work
[5] = tested on: Sirt1; set-up: method as in earlier work; conditions: selectivity profile, Sirt1 entry; ref 2-9 (supplementary references); cited from earlier work
[6] = tested on: p53-Lys382-acetylation in U2OS cells; assay: p53 acetylation after ultraviolet exposure, western blot; assay type: cell-based; conditions: 1 h pretreatment, 20 J cm^-2 UV, further 6 h
Description: U2OS cells (ATCC accession no. HTB-96) were seeded and cultured until they reached 90% confluency. […] Cells were incubated for an additional 6 h in the presence of the inhibitor and then lysed in IPLS (50 mM Tris/HCl, 150 mM NaCl; 0.5 mM EDTA; 0.5% (v/v) NP-40; 1 × Complete Protease Inhibitors (Roche), pH 8.0) and resuspended in 1 × Laemmli Buffer. Samples were then separated on SDS–PAGE, transferred to a nitrocellulose membrane (Bio-Rad), blocked with non-fat dry milk (Roth, 5% (w/v), TBS, 0.1% (v/v) Tween 20) and probed with anti-acetyl-p53 K382 (Cell Signaling, #2522), anti-p53 DO.1 (Santa Cruz Biotechnology, sc-126) and anti-vinculin (Cell Signaling, #4650) as a loading control. Uncropped blots are shown in the Supplementary Fig. 10.

[7] = tested on: mitochondrial lysine-acetylation in HEK293 cells; assay: mitochondrial protein acetylation, western blot of mitochondrial extracts; assay type: cell-based; conditions: 16 h
Description: page 27: Cell cultiva tion. HEK-293 cells (ATCC accession no. CRL-1573) were grown in Dulbecco's modified Eagle's medium (DMEM, PAA) containing 10% (vol/vol) fetal calf serum (FCS, PAA), 1% (vol/vol) penicillin (PAA), 1% (vol/vol) streptomycin (PAA), 1% (vol/vol), L- glutamine (PAA) at 37 °C in a 5% (vol/vol) CO2 atmosphere. Mitochondrial extra ction. HEK-293 cells (ATCC accession no. CRL-1573) were treated with nicotinamide or […]2 at the indicated concentrations for 16 h. Cells were washed in PBS and lysed in 5 packed cell volumes of lysis buffer (20 mM HEPES/KOH, 250 mM sucrose; 10 mM KCl, 1.5 mM MgCl2, 1 mM EDTA, 1 mM EGTA, 1 mM DTT; 0.1 mM PMSF, 1uComplete Protease Inhibitor Cocktail (Roche), pH 7.5). Cells were then homogenized in a Dounce homogenizer and 10% (vol/vol) of sample was removed for use as whole cell extract (WCE). To the remaining lysate, unbroken cells and nuclei were removed by centrifugation (10 min, 800g). The supernatant was transferred and centrifuged (10 min, 7,000g) to pellet mitochondria. Mitochondria were washed twice in lysis buffer, repeating centrifugation after each wash, followed by resuspending washed mitochondria in lysis buffer. […] Lysates were cleared by centrifugation, protein concentrations were quantitated and normalized with 1u Laemmli Buffer. […]

[8] = target: T2, human Sirt2 (Homo sapiens, UniProt Q8IXJ6); assay: fluorescence-based in vitro sirtuin assay, substrate ZMAL
T2 sequence (Q8IXJ6 25-389): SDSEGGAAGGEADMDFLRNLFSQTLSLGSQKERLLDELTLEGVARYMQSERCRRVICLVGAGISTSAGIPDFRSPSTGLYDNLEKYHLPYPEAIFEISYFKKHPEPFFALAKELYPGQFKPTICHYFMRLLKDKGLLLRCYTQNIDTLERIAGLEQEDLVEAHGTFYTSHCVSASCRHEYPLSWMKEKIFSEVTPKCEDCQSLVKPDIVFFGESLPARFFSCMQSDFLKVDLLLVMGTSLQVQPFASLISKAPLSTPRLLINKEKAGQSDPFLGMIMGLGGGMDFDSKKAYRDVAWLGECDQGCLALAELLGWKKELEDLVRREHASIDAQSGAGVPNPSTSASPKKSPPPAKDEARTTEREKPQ

[9] = tested on: BubR1 in HeLa cells; assay: abundance of BubR1, western blot; assay type: cell-based; conditions: various concentrations, 16 h
Description: Cells were washed with PBS, lysed in IPLS (50 mM Tris/HCl, 150 mM NaCl, 0.5 mM EDTA, 0.5% (v/v) NP-40, pH 7.5, supplemented with Complete protease inhibitors (Roche)). Samples were pelleted and resuspended in 1 × SDS–PAGE sample buffer and heated (95 °C, 5 min). Cell samples were separated using SDS–PAGE (10% (w/v) polyacrylamide), transferred to a nitrocellulose membrane (Bio-Rad), blocked with non-fat dry milk (Roth, 5% (w/v), TBS, 0.1% (v/v) Tween 20) and probed with the anti-BubR1 (1:5,000, BD Biosciences, 612502) and anti-tubulin (1:5,000, Sigma-Aldrich, T5168) as a loading control. Uncropped blots are shown in the Supplementary Fig. 8.

[10] = tested on: α-tubulin acetylation in HeLa cells; assay: tubulin acetylation, western blot; assay type: cell-based; conditions: various concentrations, 5 h
Excerpt: Cell samples were then separated using SDS–PAGE (12.5% (w/v) polyacrylamide), transferred to an activated nitrocellulose membrane (Bio-Rad), blocked with non-fat dry milk (Roth, 5% (w/v), TBS, 0.1% (v/v) Tween 20) and probed with an anti-acetyl-α-tubulin antibody (1:1,000, Sigma-Aldrich, T6793) and an anti-GAPDH antibody (1:2,000–1:5,000, Sigma-Aldrich, G9545) as a loading control (Fusion SL, peqlab). An uncropped blot is shown in Supplementary Fig. 8.

activity of Sirt1 [2]: not affected
SMILES: N#C/C(=C\c1ccc(-c2cc(Cl)ccc2Cl)o1)C(=O)Nc1cccc2ncccc12 [AGK2, reference compound]
acetylation level of the microtubule network ([1]; 20 μM): hyperacetylation of the microtubule network

SMILES: NC(=O)[C@H]1CCCCc2c1[nH]c1ccc(Cl)cc21 [CHIC-35]
Selectivity Sirt1/Sirt2/Sirt3 (fold): Sirt3 [3]: > 833 fold | IC50/kd for Sirt2 ([4]; published values, Supplementary Table 1): 2.4 µM | Selectivity Sirt1/Sirt2/Sirt3 (fold): Sirt2 ([4]; selectivity profile, Sirt2 entry): 23 fold | Selectivity Sirt1/Sirt2/Sirt3 (fold): Sirt1 [5]: 1 fold

SMILES: NC(=O)c1cccnc1 [NCA, nicotinamide, reference compound]
acetylation of p53 (Lys382) after ultraviolet exposure [6]: further increased | acetylation of p53 (Lys382) after ultraviolet exposure ([6]; listed as nicotinamide): increase | acetylation of mitochondrial proteins [7]: increase

SMILES: O=C(Nc1ccccc1-c1cn2c(CN3CCNCC3)csc2n1)c1cnc2ccccc2n1 [SRT1720]
Selectivity Sirt1/Sirt2/Sirt3 (fold): Sirt3 [3]: 1 fold | Selectivity Sirt1/Sirt2/Sirt3 (fold): Sirt1 [5]: activation

pIC50 [8]: 5.64
SMILES: O=C(CSc1ncccn1)Nc1ncc(Cc2cccc3ccccc23)s1 [SirReal3]

pIC50 [8]: 4.77
SMILES: O=C(CSc1ncccn1)Nc1ncc(Cc2ccccc2)s1 [SirReal4]

pIC50 [8]: < 4.30
SMILES: Cc1cc(C)cc(SCC(=O)Nc2ncc(Cc3cccc4ccccc34)s2)c1 [SirReal5]
acetylation of p53 (Lys382) after ultraviolet exposure [6]: did not observe an increase | abundance of BubR1 [9]: did not influence

pIC50 [8]: < 4.00
SMILES: Cc1cc(C)nc(SCC(=O)N(C)c2ncc(Cc3cccc4ccccc34)s2)n1 [SirReal6]
level of α-tubulin acetylation [10]: not | acetylation of p53 (Lys382) after ultraviolet exposure [6]: did not observe an increase | abundance of BubR1 [9]: did not influence | acetylation level of the microtubule network ([1]; 50 μM): does not alter; also recorded: no substantial change
